Drawing on US20080293771A1, “AZACYCLYLBENZAMIDE DERIVATIVES AS HISTAMINE-3 ANTAGONISTS” (Wyeth, priority 2007, published 2008), this text covers melting point for 25 molecules.

Where a name gives a salt, the structure may show the parent alone.

Broadly, the melting point is the temperature, or range, at which the solid turns liquid.

With `CN(C(=O)c1ccc(-n2cc3ccccc3n2)cc1)C1CCN(C2CCC2)CC1` (as salt: hydrochloride) [Example 70, N-(1-cyclobutylpiperidin-4-yl)-4-(2H-indazol-2-yl)-N-methylbenzamide], the melting point lay in the range of 273 to 275 °C. `Cc1nc2cc(C#N)ccc2n1-c1ccc(C(=O)N(C)[C@@H]2CCN(C3CCC3)C2)cc1` (as salt: hydrochloride) [Example 55, 4-(5-cyano-2-methyl-1H-benzimidazol-1-yl)-N-[(3R)-1-cyclobutylpyrrolidin-3-yl]-N-methylbenzamide] displayed a melting point of 240 to 242 °C.

Regarding `CN(C(=O)c1ccc(-n2ncc3ccccc32)cc1)C1CCN(C2CCC2)CC1` (as salt: hydrochloride) [Example 73, N-(1-cyclobutylpiperidin-4-yl)-4-(1H-indazol-1-yl)-N-methylbenzamide], the melting point was 160 °C (dec.). Then `Cc1nc2ccccc2n1-c1ccc(C(=O)N(C)[C@H]2CCN(C3CCCC(C)C3)C2)cc1` (stereo partly shown) (as salt: hydrochloride), with 181 to 183 °C. With `Cc1nc2ccccc2n1-c1ccc(C(=O)N(C)[C@@H]2CCN(C3CCOCC3)C2)cc1` (as salt: hydrochloride) the figure was 200 to 202 °C; with `Cc1nc2ccccc2n1-c1ccc(C(=O)N(C)C2CCN(C3CCCC3)CC2)cc1` (as salt: hydrochloride) [Example 32, N-(1-cyclopentylpiperidin-4-yl)-N-methyl-4-(2-methyl-1H-benzimidazol-1-yl)benzamide], 270 °C (dec.); with `CC(C)N1CCC(N(C)C(=O)c2ccc(Cn3ncc4ccccc43)cc2)CC1` (as salt: hydrochloride) [Example 79, 4-(1H-indazol-1-ylmethyl)-N-(1-isopropylpiperidin-4-yl)-N-methylbenzamide], 197 to 199 °C. Molecule `Cc1nc2ccccc2n1-c1ccc(C(=O)N(C)[C@@H]2CCN(C3CCCCC3)C2)cc1` (as salt: hydrochloride) gave a melting point of 193 to 194 °C. Then `CN(C(=O)c1ccc(-n2cccn2)cc1)C1CCN(C2CCC2)CC1` (as salt: hydrochloride) [Example 86, N-(1-cyclobutylpiperidin-4-yl)-N-methyl-4-(1H-pyrazol-1-yl)benzamide], with 272 to 273 °C; and `Cc1nc2ccccc2n1-c1ccc(C(=O)N(C)[C@@H]2CCN(C3C4CC5CC(C4)CC3C5)C2)cc1` (stereo partly shown) (as salt: hydrochloride), with 257 to 259 °C; and `Cc1nc2ccccc2n1Cc1ccc(C(=O)N(C)C2CCN(C3CCCC3)CC2)c2ccccc12` (as salt: hydrochloride) [Example 144a, N-(1-cyclopentylpiperidin-4-yl)-N-methyl-4-((2-methyl-1H-benzo[d]imidazol-1-yl)methyl)-1-naphthamide], with 228 to 230 °C. Take `CN(C(=O)c1ccc(Cn2cnc3ccccc32)cc1)C1CCN(C2CCCC2)CC1` (as salt: hydrochloride) [Example 51, 4-(1H-benzimidazol-1-ylmethyl)-N-(1-cyclopentylpiperidin-4-yl)-N-methylbenzamide]: the melting point was in the range of 248 to 250 °C. Then `Cc1nc2ccccc2n1Cc1ccc(C(=O)N(C)[C@@H]2CCN(C3CCC3)C2)c2ccccc12` (as salt: hydrochloride) [Example 143b, (R)—N-(1-cyclobutylpyrrolidin-3-yl)-N-methyl-4-((2-methyl-1H-benzo[d]imidazol-1-yl)methyl)-1-naphthamide], with 157 to 159 °C; and `COc1cc(-n2c(C)nc3ccccc32)ccc1C(=O)N(C)[C@@H]1CCN(C(C)C)C1` (as salt: hydrochloride) [Example 111, (R)—N-(1-isopropylpyrrolidin-3-yl)-2-methoxy-N-methyl-4-(2-methyl-1H-benzo[d]imidazol-1-yl)benzamide], with 193 to 195 °C; and `COc1cc(-n2c(C)nc3ccccc32)ccc1C(=O)N(C)[C@@H]1CCN(C2CCC2)C1` (as salt: hydrochloride) [Example 112, (R)—N-(1-cyclobutylpyrrolidin-3-yl)-2-methoxy-N-methyl-4-(2-methyl-1H-benzo[d]imidazol-1-yl)benzamide], with 202 to 204 °C. Consider `Cc1nc2ccccc2n1-c1ccc(C(=O)N[C@@H]2CCN(C3CCCCC3)C2)cc1` (as salt: hydrochloride) [Example 137, N-[(3R)-1-cyclohexylpyrrolidin-3-yl]-4-(2-methyl-1H-benzimidazol-1-yl)benzamide], for which the melting point fell in the range of 194 to 196 °C. With `Cc1nc2ccccc2n1-c1ccc(C(=O)N(C)[C@@H]2CCN(C3CCC3)C2)c(Cl)c1` (as salt: hydrochloride) [Example 106, 2-chloro-N-[(3R)-1-cyclobutylpyrrolidin-3-yl]-N-methyl-4-(2-methyl-1H-benzimidazol-1-yl)benzamide] the figure was 207 to 209 °C; with `CN(C(=O)c1ccc(Cn2ncc3ccccc32)cc1)[C@@H]1CCNC1` (as salt: hydrochloride) [Example 75, (R)-4-((1H-indazol-1-yl)methyl)-N-methyl-N-(pyrrolidin-3yl)benzamide], 255 to 256 °C. Then `CN(C(=O)c1ccc(-n2cccn2)cc1)C1CCN(C2CCCC2)CC1` (as salt: hydrochloride) [Example 87, N-(1-cyclopentylpiperidin-4-yl)-N-methyl-4-(1H-pyrazol-1-yl)benzamide], with 240 °C (dec.).

As for `Cc1cc(C(=O)N(C)[C@@H]2CCN(C(C)C)C2)ccc1-n1c(C)nc2ccccc21` (as salt: hydrochloride) [Example 107, N,3-dimethyl-4-(2-methyl-1H-benzimidazol-1-yl)-N-[(3R)-1-(1-methylethyl)pyrrolidin-3-yl]benzamide], the melting point lay within 183 to 185 °C. The molecule `COc1cc(C(=O)N(C)[C@@H]2CCN(C3CCC3)C2)ccc1-n1c(C)nc2ccccc21` (as salt: hydrochloride) [Example 110, N-[(3R)-1-cyclobutylpyrrolidin-3-yl]-3-methoxy-N-methyl-4-(2-methyl-1H-benzimidazol-1-yl)benzamide] registered a melting point of 168 to 170 °C. Then `Cc1nc2ccccc2n1-c1ccc(C(=O)N(C)[C@H]2CCN(C3CCC(C)C3)C2)cc1` (stereo partly shown) (as salt: hydrochloride), with 173 to 175 °C; and `COc1cc(C(=O)N(C)[C@@H]2CCN(C(C)C)C2)ccc1-n1c(C)nc2ccccc21` (as salt: hydrochloride) [Example 109, 3-methoxy-N-methyl-4-(2-methyl-1H-benzimidazol-1-yl)-N-[(3R)-1-(1-methylethyl)pyrrolidin-3-yl]benzamide], with 168 to 170 °C; and `Cc1nc2ccccc2n1Cc1ccc(C(=O)N(C)[C@@H]2CCN(C(C)C)C2)c2ccccc12` (as salt: hydrochloride) [Example 143a, (R)—N-(1-isopropylpyrrolidin-3-yl)-N-methyl-4-((2-methyl-1H-benzo[d]imidazol-1-yl)methyl)-1-naphthamide], with 192 to 194 °C.

As to `Cc1nc2ccccc2n1-c1ccc(C(=O)N(C)[C@H]2CCN(C3CCCC3)C2)cc1` (as salt: hydrochloride), the melting point is 165 to 166 °C.
